Assay [1] concerns the target RNA2 (A bulge of the miR-18a precursor). The assay is described as follows: Fluorescence-based binding affinity measurement. Details: species or system human. How it is done: (§1) FIG. 7: Secondary structures of the nucleic acids to which the binding of small molecule 4 was assessed. […] RNA1 contains the U bulge present in the Dicer processing site common to miR-17, -18a and -20a. RNA2 contains the A bulge that is present in miR-18a. RNA3 contains the G bulge present in miR-17 and miR-20a. Binding affinities (Kd's) are indicated in parentheses and are reported in micromolar.
(§2) Mutation of the U bulge to an AU pair (RNAC) eliminates binding (Kd>100 μM).
(§3) Binding Affinity Measurements: An in solution, fluorescence-based assay was used to determine binding affinities by monitoring the change in fluorescence intensity of 1-FL (or 2-FL/3-FL/4-FL) as a function of RNA concentration as described previously.^18 Briefly, the RNA of interest was folded in 1× Folding Buffer (8 mM Na2HPO4, pH 7.0, 185 mM NaCl and 1 mM EDTA) by heating at 60° C. for 5 min followed by slowly cooling to room temperature on the bench top. Then, the FL-conjugated compound was added into the RNA solution to a final concentration of 100 nM. Serial dilutions were then completed using 1× Folding Buffer supplemented with 100 nM FL-conjugated compound. The solutions were incubated at room temperature for 30 min and then transferred to a well of a black 384-well plate. Fluorescence intensity was measured using a Bio-Tek FL×800 plate reader with an excitation wavelength of 485/20 nm and an emission wavelength of 528/20 nm. The change in fluorescence intensity as a function of the concentration of RNA was fit to equation 3:^9 I=I0+0.5 Δε{([FL]0+[RNA]0 +Kd)−(([FL]0+[RNA]0+Kd)^2−4[FL]0[RNA]0)^1/2} (3) where I is the observed fluorescence intensity; I0 is the fluorescence intensity in the absence of RNA; Δε is the difference between the fluorescence intensity in the absence of RNA and in the presence of infinite RNA concentration; [FL]0 is the concentration of compound; [RNA]0 is the concentration of the selected RNA; and Kd is the dissociation constant.

Assay [2] deals with RNA3 (G bulge of the miR-17 and miR-20a precursors). The assay is described as follows: Fluorescence-based binding affinity measurement. Further details: species or system human. On the procedure: as §1, §2, §3
Assay [3] deals with RNA1 (5′G_U/3′CUA U bulge of Dicer sites in miR-17, -18a and -20a). The assay is described as follows: Fluorescence-based binding affinity measurement. Further details: species or system human. On the procedure: as §1, §2, §3
Assay [4] concerns pre-miR-20a. As to the kind of experiment: Chem-CLIP in DU145 cell lysates. The format is binding, human. The following applies: 10 μM, DU145 cell lysate. On the procedure: (§4) Chem-CLIP in Cell Lysates: DU145 cells were cultured as described above in 100 mm dishes and lysed with 500 μL of Cell Lysis Buffer (10 mM Tris pH 7.4, 0.25% Igepal CA-630 and 150 mM NaCl) for 5 min at room temperature. The cell lysate was then centrifuged and the supernatant collected. Next, 10 μM of 4 was added to the lysate in 1×PBS and the sample was incubated for 2 h at room temperature. The reaction was then directly used for pull-down by incubating with 50 μL of streptavidin resin in 1×PBS for 30 min at room temperature. […] RNA was eluted from the streptavidin beads by incubation with 100 μL of 1× Elution Buffer (10 mM EDTA and 95% formamide) at 65° C. for 20 min. The eluted RNA was cleaned up using a Quick-RNA Miniprep Kit (Zymo) per the manufacturer's protocol. RT-qPCR was completed as described above using 50 ng of total RNA in the RT reaction. Expression levels were normalized to 18S rRNA.

Assay [5] relates to pre-miR-17. As to the kind of experiment: Chem-CLIP in DU145 cell lysates. The format is binding, human. The following applies: 10 μM, DU145 cell lysate. On the procedure: as §4
Assay [6] relates to pre-miR-18a. As to the kind of experiment: Chem-CLIP in DU145 cell lysates. The format is binding, human. The following applies: 10 μM, DU145 cell lysate. On the procedure: as §4
Assay [7] deals with motif in the Dicer site of miR-92a. As to the kind of experiment: Fluorescence-based binding affinity measurement. Details: species or system human. The following applies: miR-92a Dicer site motif. On the procedure:
as §2, §3

Assay [8] deals with motif in the Dicer site of miR-19a. As to the kind of experiment: Fluorescence-based binding affinity measurement. Details: species or system human. Conditions: miR-19a Dicer site motif. How it is done:
as §2, §3

Assay [9] relates to motif in the Dicer site of miR-19b. The assay is described as follows: Fluorescence-based binding affinity measurement. The following applies: miR-19b Dicer site motif. Further details: species or system human. How it is done: as §2, §3
In assay [10] the test system is STK4 protein. As to the kind of experiment: Western blotting of STK4 in DU145 cells. The format is cell-based. The following applies: 20 μM. On the procedure: A previous study has shown that miR-18a represses serine/threonine protein kinase 4 (STK4) protein, a tumor suppressor, in prostate cancer cells and promotes tumorigenesis.^45 Thus, we studied the ability of compound 4 to de-repress STK4 and trigger apoptosis. Treatment of DU145 cells with 20 μM of 4 increases levels of STK4 by 2.5-fold (FIG. 9A).
Western Blotting: Cells were grown in 6-well plates to ˜80% confluency in complete growth medium and then incubated with 10 or 20 μM of 4 for 48 h. Total protein was extracted using M-PER Mammalian Protein Extraction Reagent (Pierce Biotechnology) per the manufacturer's recommended protocol. Extracted total protein was quantified using a Micro BCA Protein Assay Kit (Pierce Biotechnology). […]
The membrane was briefly washed with 1× Tris-buffered saline (TBS; 50 mM Tris-CI, pH 7.5. 150 mM NaCl) and blocked with 5% milk in 1×TBST (1×TBS containing 0.05% Tween-20) for 1 h at room temperature. […] After washing with 1×TBST, protein expression was quantified using SuperSignal West Pico Chemiluminescent Substrate (Pierce Biotechnology) per the manufacturer's protocol.
The membrane was then stripped using 1× Stripping Buffer (200 mM glycine, 1% Tween-20 and 0.1% SDS, pH 2.2) followed by washing in 1×TBST. […] ImageJ software from the National Institutes of Health was used to quantify band intensities.
For orientation: In western blotting, separated proteins are transferred to a membrane and probed.

The values that follow come from patent US12527788B2, “Defining RNA-small molecule affinity landscapes enables design of a small molecule inhibitor of an oncogenic non-coding RNA” (University of Florida Research Foundation, Incorporated, priority 2017, dated 2026).

On to `CN1CCN(c2ccc(-c3ccc4nc(-c5cc(C(C)(C)C)c(OCCCC(=O)NCCCN=[N+]=[N-])c(C(C)(C)C)c5)[nH]c4c3)cc2)CC1` [Compound 4], for which the Kd – broadly, the equilibrium constant for the complex coming apart – in assay [1] was 32 ± 5 µM; in assay [2], 40 ± 6 µM; in assay [3], 30 ± 2 µM. In addition, the “Enrichment in pulled-down fraction” value in [4] was approximately 2 fold; in assay [5], approximately 2 fold; in [6], approximately 4 fold. For the same compound, the Saturable binding result in assay [7], in [8] and in assay [9] was “No saturable binding” in each case. The “Increase of STK4 levels” value in assay [10] is given as 2.5 fold.
